Measurements taken from article PMC3735612, “Functional Identification of Close Proximity Amino Acid Side Chains within the Transmembrane-Spanning Helixes of the P2X2 Receptor” (PLoS ONE, 2013).
Where a chain is given by its changes, count along the chain named.

How the values were obtained:
Test in all cases: perforated-patch whole-cell voltage clamp, peak ATP-gated current, Hill fit
Assay type in all cases: cell-based
[1] = molecular target: T1, rP2X2R (rP2X2R-WT; rP2X2R-T for the C348T background) (Rattus norvegicus, UniProt P49653, C348T/F44C)
T1 construct: gene P2rx2; full-length, C-terminal FLAG tag (DYKDDDDK), transiently expressed in HEK293 cells with EGFP; homotrimer; monomer about 62 kDa on SDS-PAGE; all point mutants made on the C348T (rP2X2R-T) background
T1 sequence (P49653 1-472 F44C/C348T): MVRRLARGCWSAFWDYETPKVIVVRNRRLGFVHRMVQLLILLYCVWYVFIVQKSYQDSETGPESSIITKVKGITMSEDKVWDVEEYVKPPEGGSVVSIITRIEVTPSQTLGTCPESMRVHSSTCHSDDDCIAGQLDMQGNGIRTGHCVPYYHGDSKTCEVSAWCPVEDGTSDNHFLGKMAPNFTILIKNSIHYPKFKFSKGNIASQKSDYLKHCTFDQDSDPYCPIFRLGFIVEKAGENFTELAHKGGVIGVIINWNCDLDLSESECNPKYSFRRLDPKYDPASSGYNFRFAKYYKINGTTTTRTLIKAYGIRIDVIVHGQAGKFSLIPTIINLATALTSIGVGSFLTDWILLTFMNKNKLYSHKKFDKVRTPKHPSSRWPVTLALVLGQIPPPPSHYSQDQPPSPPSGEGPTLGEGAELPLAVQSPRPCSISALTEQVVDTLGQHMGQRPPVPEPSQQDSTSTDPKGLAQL
Description: (§1) perforated-patch whole-cell voltage clamp, peak ATP-gated current, Hill fit on rP2X2R (rP2X2R-WT; rP2X2R-T for the C348T background)

[2] = molecular target: T2, rP2X2R (rP2X2R-WT; rP2X2R-T for the C348T background) (Rattus norvegicus, UniProt P49653, C348T/H33A)
T2 construct: gene P2rx2; full-length, C-terminal FLAG tag (DYKDDDDK), transiently expressed in HEK293 cells with EGFP; homotrimer; monomer about 62 kDa on SDS-PAGE; all point mutants made on the C348T (rP2X2R-T) background
T2 sequence (P49653 1-472 H33A/C348T): T1 sequence (P49653 1-472 F44C/C348T) with H33A, C44F
Description: as §1

[3] = molecular target: T3, rP2X2R (rP2X2R-WT; rP2X2R-T for the C348T background) (Rattus norvegicus, UniProt P49653, C348T/H33A/S345A)
T3 construct: gene P2rx2; full-length, C-terminal FLAG tag (DYKDDDDK), transiently expressed in HEK293 cells with EGFP; homotrimer; monomer about 62 kDa on SDS-PAGE; all point mutants made on the C348T (rP2X2R-T) background
T3 sequence (P49653 1-472 H33A/S345A/C348T): T1 sequence (P49653 1-472 F44C/C348T) with H33A, C44F, S345A
Description: as §1

[4] = molecular target: T4, rP2X2R (rP2X2R-WT; rP2X2R-T for the C348T background) (Rattus norvegicus, UniProt P49653, C348T/H33C)
T4 construct: gene P2rx2; full-length, C-terminal FLAG tag (DYKDDDDK), transiently expressed in HEK293 cells with EGFP; homotrimer; monomer about 62 kDa on SDS-PAGE; all point mutants made on the C348T (rP2X2R-T) background
T4 sequence (P49653 1-472 H33C/C348T): T1 sequence (P49653 1-472 F44C/C348T) with H33C, C44F
Description: as §1

[5] = molecular target: T5, rP2X2R (rP2X2R-WT; rP2X2R-T for the C348T background) (Rattus norvegicus, UniProt P49653, C348T/H33C/S345C)
T5 construct: gene P2rx2; full-length, C-terminal FLAG tag (DYKDDDDK), transiently expressed in HEK293 cells with EGFP; homotrimer; monomer about 62 kDa on SDS-PAGE; all point mutants made on the C348T (rP2X2R-T) background
T5 sequence (P49653 1-472 H33C/S345C/C348T): T1 sequence (P49653 1-472 F44C/C348T) with H33C, C44F, S345C
Description: as §1

[6] = molecular target: T6, rP2X2R (rP2X2R-WT; rP2X2R-T for the C348T background) (Rattus norvegicus, UniProt P49653, C348T/I328A)
T6 construct: gene P2rx2; full-length, C-terminal FLAG tag (DYKDDDDK), transiently expressed in HEK293 cells with EGFP; homotrimer; monomer about 62 kDa on SDS-PAGE; all point mutants made on the C348T (rP2X2R-T) background
T6 sequence (P49653 1-472 I328A/C348T): T1 sequence (P49653 1-472 F44C/C348T) with C44F, I328A
Description: as §1

[7] = molecular target: T7, rP2X2R (rP2X2R-WT; rP2X2R-T for the C348T background) (Rattus norvegicus, UniProt P49653, C348T/I328C/V48C)
T7 construct: gene P2rx2; full-length, C-terminal FLAG tag (DYKDDDDK), transiently expressed in HEK293 cells with EGFP; homotrimer; monomer about 62 kDa on SDS-PAGE; all point mutants made on the C348T (rP2X2R-T) background
T7 sequence (P49653 1-472 V48C/I328C/C348T): T1 sequence (P49653 1-472 F44C/C348T) with C44F, V48C, I328C
Description: as §1

[8] = molecular target: T8, rP2X2R (rP2X2R-WT; rP2X2R-T for the C348T background) (Rattus norvegicus, UniProt P49653, C348T/S345A)
T8 construct: gene P2rx2; full-length, C-terminal FLAG tag (DYKDDDDK), transiently expressed in HEK293 cells with EGFP; homotrimer; monomer about 62 kDa on SDS-PAGE; all point mutants made on the C348T (rP2X2R-T) background
T8 sequence (P49653 1-472 S345A/C348T): T1 sequence (P49653 1-472 F44C/C348T) with C44F, S345A
Description: as §1

[9] = molecular target: T9, rP2X2R (rP2X2R-WT; rP2X2R-T for the C348T background) (Rattus norvegicus, UniProt P49653, C348T/S345C)
T9 construct: gene P2rx2; full-length, C-terminal FLAG tag (DYKDDDDK), transiently expressed in HEK293 cells with EGFP; homotrimer; monomer about 62 kDa on SDS-PAGE; all point mutants made on the C348T (rP2X2R-T) background
T9 sequence (P49653 1-472 S345C/C348T): T1 sequence (P49653 1-472 F44C/C348T) with C44F, S345C
Description: as §1

EC50 [1]: 0.81 ± 0.1 µM | EC50 [2]: 4.2 ± 0.6 µM | EC50 [3]: 35.7 ± 0.5 µM | EC50 [4]: 2.3 ± 0.5 µM | EC50 [5]: 7.3 ± 1.1 µM | EC50 [6]: 0.4 ± 0.1 µM | EC50 [7]: 17.8 ± 2 µM | EC50 [8]: 12.1 ± 0.7 µM | EC50 [9]: 6.3 ± 0.9 µM
SMILES: Nc1ncnc2c1ncn2[C@@H]1O[C@H](COP(=O)(O)OP(=O)(O)OP(=O)(O)O)[C@@H](O)[C@H]1O [ATP]
